Data set [1] is described as follows: Kinetic solubility study. The settings on record: PBS pH 7.4 with 1% DMSO, aqueous buffer, kinetic from dmso stock; PBS pH = 7.4, 2 hours, RT, 1% DMSO co-solvent; read-out: Kinetic sol. The class given is physicochemical. Here is the method: Following shaking of the suspension on an orbital shaker at 300 rpm for 2 hours, the suspension was clarified by vacuum filtration (Multiscreen® Vacuum Manifold; MilliporeSigma). Immediately following the filtration step, […] of the filtrate was transferred into […] of acetonitrile to avoid compound precipitation from the saturated solution. The concentration of the research compound was determined by HPLC-UV-(MS) detection, by using an external standard made from the same batch of research compound.

Data set [2] is described as follows: Thermodynamic solubility study (37° C., 4 hours). The settings on record: fassgf or other biorelevant, thermodynamic from solid, SIF pH = 6.8, 4 hours, read-out: Thermodynamic sol. The data set is classed as physicochemical. Here is the method:
Thermodynamic Solubility Study (37° C., 4 Hours)
The resulted mixtures/oversaturated solutions are shaken at 37° C. for 4 hrs (to the solution equilibrium) and are filtrated on a Millipore MultiSreen Filter Plate (0.45 μm). Concentrations of the filtrates are determined by LC/UV/MS based on a 5-point calibration. (When the solid material dissolved totally in the aqueous test medium the result should be considered as a minimal value.) Results are shown in Table 2.

The target in data set [3] is T1, human D2L receptors (Homo sapiens (Human), UniProt P14416). The experiment in a line: Agonism of human D2L receptors, cAMP detection (HTRF) in CHO-K1 cells. The data set is classed as cell-based. As to conditions: inhibition of forskolin-stimulated cAMP accumulation, read-out: D2L cAMP pEC50 (converted). (In general: Time-resolved FRET reads energy transfer from a long-lived donor to a nearby acceptor.)
Target sequence in this assay (P14416 whole entry): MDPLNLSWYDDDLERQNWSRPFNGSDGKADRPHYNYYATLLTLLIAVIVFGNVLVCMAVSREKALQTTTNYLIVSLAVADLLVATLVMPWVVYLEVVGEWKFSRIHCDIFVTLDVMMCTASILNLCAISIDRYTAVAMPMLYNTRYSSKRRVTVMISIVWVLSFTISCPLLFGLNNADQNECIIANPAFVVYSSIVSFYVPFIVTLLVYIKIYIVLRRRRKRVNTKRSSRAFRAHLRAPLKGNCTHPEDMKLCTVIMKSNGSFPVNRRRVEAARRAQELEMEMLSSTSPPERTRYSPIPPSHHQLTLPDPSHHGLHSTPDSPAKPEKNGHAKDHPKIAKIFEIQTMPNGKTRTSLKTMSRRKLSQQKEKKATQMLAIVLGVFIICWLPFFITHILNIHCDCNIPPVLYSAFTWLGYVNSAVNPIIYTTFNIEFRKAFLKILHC
Method: Agonist activity at human D2L receptors was assayed by measuring cAMP levels in CHO-K1 cells expressing human D2L receptors (Eurofins DiscoverX, Fremont, CA, USA) by homogenous time-resolved fluorescence (HTRF®) using the cAMP Gi kit (Cisbio/PerkinElmer). CHO-K1 cells expressing human D2L receptors were cultured in Ham's F12 medium supplemented with 10% FBS, 1% penicillin-streptomycin antimycotic solution, and 800 μg/mL G418 (Thermo Fisher Scientific, Waltham, MA, USA) and maintained at 37° C. in a humidified atmosphere containing 5.0% CO2. […] Results were calculated from the ratio of acceptor fluorescence signal (A665 nm) and donor fluorescence signal (A620 nm)×10^4 and expressed as ΔF % values using the following formula: 100×(Ratio Sample-Ratio Negative Control)/Ratio Negative Control. In experiments, all treatments were measured in multiple wells in parallel, and the mean ΔF % values were used for further analysis. Agonist activity values were calculated as percentage of inhibition of forskolin-stimulated cAMP accumulation normalized to the response evoked by a maximally effective concentration of dopamine tested in the same experiment. […]

Data set [4] has as its target T1, human D2L receptors. Kind of data set: β-arrestin recruitment to human dopamine D2L receptors (PathHunter CHO-K1). The data set is classed as cell-based. As to conditions: β-arrestin-2 recruitment, CHO-K1 cells, normalized to 30 μM dopamine; read-out: D2L arrestin pEC50 (converted).
Target sequence in this assay (P14416 whole entry, looked up): as the sequence (P14416 whole entry) above
Target sequence in this assay (P32121 whole entry partner, looked up): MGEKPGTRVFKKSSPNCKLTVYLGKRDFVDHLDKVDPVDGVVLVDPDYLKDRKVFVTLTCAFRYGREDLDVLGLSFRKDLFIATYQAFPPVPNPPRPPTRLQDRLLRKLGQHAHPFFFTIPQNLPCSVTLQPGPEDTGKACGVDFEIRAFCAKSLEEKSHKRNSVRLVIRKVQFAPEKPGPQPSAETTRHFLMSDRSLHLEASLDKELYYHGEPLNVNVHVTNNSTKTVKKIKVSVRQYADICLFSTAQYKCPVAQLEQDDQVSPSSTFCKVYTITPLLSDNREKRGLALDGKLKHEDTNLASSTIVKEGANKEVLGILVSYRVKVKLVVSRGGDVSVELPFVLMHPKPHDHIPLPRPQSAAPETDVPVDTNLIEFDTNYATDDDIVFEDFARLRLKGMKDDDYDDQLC
Method: Measurement of β-Arrestin Recruitment to Human Dopamine D2L Receptors
PathHunter® CHO-K1 cells expressing tagged human D2L receptors and tagged β-arrestin-2 (Eurofins DiscoverX, Fremont, CA, USA) were seeded into 96-well white-walled clear bottom tissue culture plates in 90 μL/cell AssayComplete™ Cell Plating 2 (CP2) reagent (Eurofins DiscoverX) at a density of 20,000 cells/well. The plates were incubated overnight in a humidified atmosphere with 5% CO2 at 37° C. Twenty to twenty-four hours later, 20 μL of test compound or vehicle in CP2 reagent and containing 2.2% DMSO was added to the cells, and they were incubated for 90 minutes at 37° C. Then, 55 μL PathHunter® Detection Reagent (Eurofins DiscoverX) was added per well and plates were incubated for 60 minutes at 25° C., followed by luminescence detection using a PHERAstar® FS multimode plate reader (BMG Labtech, Ortenberg, Germany). Raw data were converted to percent stimulation above basal values. Values were further converted to percent of maximal stimulation of β-arrestin recruitment by 30 μM dopamine. EC50 values were calculated from concentration-response curves of at least six concentrations run in duplicates by sigmoidal fitting using Origin® 7.5 software (OriginLab Corporation, Northampton, MA, USA) and were defined as the concentration of the agonist with half-maximal stimulation.
Data set [5] concerns the target T2, human D3 receptors (Homo sapiens (Human), UniProt P35462). Kind of data set: Agonism at human D3 receptors, cAMP detection (HTRF) in HEK293 cells. The class given is cell-based. As to conditions: inhibition of forskolin-stimulated cAMP accumulation, HEK293 cells co-expressing adenylyl cyclase V; read-out: D3 cAMP pEC50 (converted).
Target sequence in this assay (P35462 whole entry): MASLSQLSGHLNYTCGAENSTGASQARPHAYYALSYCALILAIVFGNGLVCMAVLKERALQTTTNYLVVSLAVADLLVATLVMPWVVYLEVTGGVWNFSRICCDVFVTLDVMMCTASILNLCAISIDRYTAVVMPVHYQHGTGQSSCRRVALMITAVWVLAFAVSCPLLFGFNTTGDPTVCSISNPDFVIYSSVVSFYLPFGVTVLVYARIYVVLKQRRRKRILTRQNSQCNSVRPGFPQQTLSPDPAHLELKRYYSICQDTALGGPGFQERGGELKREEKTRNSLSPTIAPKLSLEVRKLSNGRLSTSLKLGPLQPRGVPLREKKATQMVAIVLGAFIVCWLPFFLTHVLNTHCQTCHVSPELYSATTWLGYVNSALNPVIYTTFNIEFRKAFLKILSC
Method: Characterization of Agonism at Human D3 Receptors Using Cyclic Adenosine Monophosphate Detection
Agonist activity at human D3 receptors was assayed by cAMP levels in HEK293 cells expressing recombinant human D3 receptors (BioXtal, Saint-Félix, France) stably co-expressing adenylyl cyclase V (ACV) (cell line developed by Gedeon Richter) by homogenous time-resolved fluorescence (HTRF) using the cAMP Gi kit (Cisbio/PerkinElmer). HEK293 cells expressing recombinant human D3 receptors and ACV were cultured in DMEM supplemented with 10% FBS, 1% penicillin-streptomycin antimycotic solution, 1% pyruvate, 100 μg/mL G418 (Thermo Fisher Scientific) and 60 μg/mL hygromycin B and maintained at 37° C. in a humidified atmosphere containing 5% CO2. […]
Results were calculated from the ratio of acceptor fluorescence signal (A665 nm) and donor fluorescence signal (A620 nm)×10^4 and expressed as ΔF % values using the following formula: 100× (ratio sample-ratio negative control)/ratio negative control. In all experiments multiple wells were measured in parallel, and the mean ΔF % values were used for further analysis. Agonist activity values were calculated as percentage of inhibition of forskolin-stimulated cAMP accumulation normalized to the response evoked by a maximally effective concentration of dopamine tested in the same experiment. […]
In data set [6] the target is T2, human D3 receptors. The experiment in a line: β-arrestin recruitment to human dopamine D3 receptors (PathHunter CHO-K1). The data set is classed as cell-based. For orientation: Recruitment of arrestin is a read-out of receptor activation apart from second messengers.
Target sequence in this assay (P35462 whole entry, looked up): as the sequence (P35462 whole entry) above
Target sequence in this assay (P32121 whole entry partner, looked up): as the sequence (P32121 whole entry partner, looked up) above
Method: Measurement of β-Arrestin Recruitment to Human Dopamine D3 Receptors
PathHunter® CHO-K1 cells expressing tagged human D3 receptors and tagged β-arrestin-2 (Eurofins DiscoverX, Fremont, CA, USA) were seeded into 96-well white-walled clear bottom tissue culture plates in 90 μL AssayComplete™ Cell Plating 2 (CP2) reagent (Eurofins DiscoverX) at a density of 25,000 cells/well and incubated overnight in humidified atmosphere with 5% CO2 at 37° C. Twenty to twenty-four hours later, 20 μL of test compounds or vehicle in CP2 reagent containing 2.2% DMSO was added to the cells and the cells were incubated for 90 minutes at 37° C. Following incubation, 55 μL PathHunter® Detection Reagent (Eurofins DiscoverX) was added per well and the plates were incubated for 60 minutes at 25° C. followed by luminescence detection using a PHERAstar® FS multimode plate reader (BMG Labtech, Ortenberg, Germany).
Raw data were first converted to stimulation % above basal values. The stimulation % above basal values were further converted to % of maximal stimulation of β-arrestin recruitment by 1 μM dopamine. EC50 values were calculated from concentration-response curves of at least six concentrations in duplicates by sigmoidal fitting using Origin® 7.5 software (OriginLab© Corporation, Northampton, MA, USA) and were defined as the concentration of the agonist with half-maximal stimulation.
Data set [7] concerns the target human 5-HT2A receptors (Homo sapiens (Human), UniProt P28223). Kind of data set: Antagonism at human 5-HT2A receptors, fluorometric Ca2+ detection. The class given is cell-based. The settings on record: CHO-K1 cells with Gα16, against EC80 5-HT; read-out: 5-HT2A Ca2+ pIC50 (converted).
From the text: Characterization of Antagonism at Human 5-HT2A Receptors using Fluorometric Ca^2+ Detection
CHO-K1 cells expressing human recombinant 5-HT2A receptors and Gα16 (purchased from Euroscreen Fast, Brussels, BE) in culture were cryopreserved according to established protocols, using 90% FBS/10% DMSO as medium. Prior to the experiment, cells were thawed, resuspended in PowerCHO™ 2 medium (Lonza, Basel, Switzerland) supplemented with 10% fetal bovine serum (FBS), 1% penicillin-streptomycin antimycotic solution, and 1% pyruvate. Cells were seeded in 96-well microplates at a density of 40,000 cells/well and incubated overnight at 37° C. in a humidified atmosphere containing 5.0% CO2. […]
Baseline and agonist-evoked [Ca^2+]i (intracellular Ca^2+) changes were monitored with a FlexStation® II 96 well plate reader (Molecular Devices, San Jose, CA, USA). […] Baseline was recorded for 20 seconds followed by agonist stimulation, when 50 μL 3× concentrated agonist (5-HT at its EC80) solution or assay buffer/vehicle was added to all wells at 75 μL/second using the onboard pipettor, at a height corresponding to 155 μL. Fluorescence was monitored for an additional 20 seconds.
Compounds were evaluated against an EC80 5-HT concentration, as determined on each plate with the built-in curve fitting module of the measurement software (SoftMax® Pro 5.2, Molecular Devices, San Jose, CA, USA). […]
The subject of data set [8] is phencyclidine-induced hypermotility. Kind of data set: Phencyclidine-induced hypermotility in rats. The data set is classed as in vivo. As to conditions: Rattus norvegicus; male Harlan-Wistar rats, percent inhibition, linear regression; read-out: PCP (ED50 mg/kg).
Method: Phencyclidine-Induced Hypermotility in Rats
Spontaneous locomotor activity was measured using a six-channel activity monitor manufactured by Experimetria Ltd. (Budapest, HU). […] Additional arrays of photocells (30 pairs) were placed along opposite sides of the cage at different heights (6.5 cm, 12 cm, 18 cm and 23 cm) in order to detect rearing responses.
Test compounds were administered to study animals either orally or subcutaneously, with ten animals per treatment group. In these studies, male Harlan-Wistar rats (Toxi-Coop, Budapest, HU) weighing 190-210 grams were used. After oral administration of test compound or vehicle, animals were individually habituated to the activity monitors for 30 minutes. In the cases of subcutaneous administration of test compounds, rats were first habituated for 15 minutes to the activity monitors, then treated with the test compound or vehicle followed by replacing them into the activity monitors for an additional 15-minute period of habituation. […]
Data were analyzed using GraphPad® Prism® 9 software (GraphPad, San Diego, CA, USA). […] Drug effect was evaluated using Analysis of Variance (ANOVA, or Welch's ANOVA when appropriate) followed by Dunnett's multiple comparisons test. When appropriate, the ED50 value was determined from percent inhibition data from linear regression analysis.
Data set [9] concerns apomorphine-induced climbing and sniffing. Kind of data set: Apomorphine-induced climbing and sniffing in mice. The data set is classed as in vivo. The settings on record: Mus musculus, sc, male CD1 mice, subcutaneous, 1.5 mg/kg apomorphine.
Method: Apomorphine-Induced Climbing and Sniffing in Mice
Male CD1® mice (Envigo, Horst, NL) weighing 24-29 g were used in the experiments (n=12 per treatment group). Climbing and sniffing behavior were measured by visual observation in cylindrical cages.
Immediately after the subcutaneous administration of the vehicle or the test compound, animals were placed into the cages for 10 minutes to habituate. […] After treatment, animals were replaced into the cylindrical cages. The measurement of climbing and sniffing behavior started 10 minutes after the apomorphine treatment (during the 11th minute) and lasted for 16 minutes. Every minute the climbing behavior was scored as follows: four paws on the floor (0 score); forefeet touching the bars (1 score); and four paws grasping the bars (2 score). Animals were also rated for repetitive sniffing as a measure of stereotypy according to the following scale: no sniffing (0 score), moderate sniffing, little snout contact with cage walls or floor (1 score); and constant sniffing, persistent snout contact (2 score).
Data were analyzed using GraphPad Prism 9 software (GraphPad). Scores for both behaviors were tallied for each individual (possible maximum score 32) and group means were calculated. Drug effect was calculated as percent inhibition of the apomorphine-induced behavior. […]

Values after ≈ are worked out from the molar mass of the structure shown. Where two headings read alike, the source gives them in different places.

Sequence of human 5-HT2A receptors (P28223 whole entry): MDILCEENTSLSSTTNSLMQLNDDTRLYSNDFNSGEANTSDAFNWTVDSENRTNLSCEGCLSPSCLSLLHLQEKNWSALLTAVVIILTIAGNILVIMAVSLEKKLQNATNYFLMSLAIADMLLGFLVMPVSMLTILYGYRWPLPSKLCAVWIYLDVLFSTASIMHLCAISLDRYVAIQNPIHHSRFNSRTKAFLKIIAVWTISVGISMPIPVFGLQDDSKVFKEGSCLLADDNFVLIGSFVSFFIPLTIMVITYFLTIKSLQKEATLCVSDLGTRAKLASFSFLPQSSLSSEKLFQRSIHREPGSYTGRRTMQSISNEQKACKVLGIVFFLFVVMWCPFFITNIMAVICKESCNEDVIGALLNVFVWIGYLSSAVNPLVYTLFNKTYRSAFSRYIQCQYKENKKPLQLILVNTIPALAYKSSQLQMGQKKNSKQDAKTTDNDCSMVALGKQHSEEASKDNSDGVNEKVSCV

As for `COCN(C)C(=O)N[C@H]1CC[C@H](CCN2CCN(c3cccc(Cl)c3Cl)CC2)CC1` [Example 2, N′-[(1r,4r)-4-{2-[4-(2,3-dichlorophenyl)piperazin-1-yl]ethyl}cyclohexyl]-N-(methoxymethyl)-N-methylurea], the solubility kinetic at 2 h in [1] turned out to be 47.7 ± 4.5 µM (≈ 21.8 µg/mL). Moreover, the solubility thermodynamic at 4 h in data set [2] is 147 ± 8.72 µM (≈ 67.3 µg/mL). Further, the EC50 in [3] was 1.32 nM; in data set [4], 0.724 nM; in [5], 1.95 nM; in data set [6] it was 3.89 nM. In addition, the IC50 in [7] was 132 nM.
As for `CCCOCN(C)C(=O)N[C@H]1CC[C@H](CCN2CCN(c3cccc(Cl)c3Cl)CC2)CC1` [Example 3, N′-[(1r,4r)-4-{2-[4-(2,3-dichlorophenyl)piperazin-1-yl]ethyl}cyclohexyl]-N-methyl-N-(propoxymethyl)urea], the solubility kinetic at 2 h in data set [1] came out at 32.4 ± 3.2 µM (≈ 15.7 µg/mL). Further, the solubility thermodynamic at 4 h in data set [2] came to 32.7 ± 1.65 µM (≈ 15.9 µg/mL).
For `CCOCN(C)C(=O)N[C@H]1CC[C@H](CCN2CCN(c3cccc(Cl)c3Cl)CC2)CC1` [Example 1, N′-[(1r,4r)-4-{2-[4-(2,3-dichlorophenyl)piperazin-1-yl]ethyl}cyclohexyl]-N-(ethoxymethyl)-N-methylurea], the solubility kinetic at 2 h in data set [1] amounted to 72.7 ± 3.4 µM (≈ 34.3 µg/mL). In addition, in [2], the solubility thermodynamic at 4 h was 53.5 ± 0.9 µM (≈ 25.2 µg/mL). Moreover, the IC50 in data set [7] is 158 nM. The ED50 in [8] amounted to 0.07 mg/kg; in data set [9] (apomorphine-induced climbing, read-out: APO (ED50 cl mg/kg)) it was 0.1 mg/kg; in data set [9] (apomorphine-induced sniffing, read-out: APO (ED50 sn mg/kg)) it was 0.4 mg/kg.
`CCCN(C)C(=O)N[C@H]1CC[C@H](CCN2CCN(c3cccc(Cl)c3Cl)CC2)CC1` [Ref. Ex. 1, N′-[(1r,4r)-4-{2-[4-(2,3-dichlorophenyl)piperazin-1-yl]ethyl}cyclohexyl]-N-methyl-N-propylurea, reference compound]: in [1], the solubility kinetic at 2 h amounted to 10.9 ± 1.7 µM (≈ 4.96 µg/mL). Further, the solubility thermodynamic at 4 h in [2] stood at 27.7 ± 1.1 µM (≈ 12.6 µg/mL).

Values taken from patent US12168007B1, “Substituted piperazines as dopamine D3/D2 receptor modulators” (Richter Gedeon Nyrt, priority 2023, dated 2024).
